{
  "source": "ChEMBL document CHEMBL5335838",
  "about": "“The medicinal chemistry evolution of antibody-drug conjugates” (RSC Med Chem, 2024)",
  "key": {"[1]": {"experiment": "Permeability of compound at pH 7.4 by PAMPA assay", "format": "ADME", "conditions": "read-out: permeability"}, "[2]": {"experiment": "Plasma protein binding in mouse assessed as unbound fraction", "format": "ADME, cell-free"}, "[3]": {"experiment": "AUC in CD1 mouse at 3 mg/kg, iv", "format": "ADME, organism-based", "parameters": "dose 3 mg/kg, route iv", "conditions": "in vivo"}, "[4]": {"experiment": "Half life in CD1 mouse at 3 mg/kg, iv", "format": "ADME, organism-based", "conditions": "in vivo"}, "[5]": {"experiment": "AUC (0 to infinity) in CD1 mouse at 10 mg/kg, po", "format": "ADME, organism-based", "parameters": "dose 10 mg/kg, route po", "conditions": "in vivo"}, "[6]": {"experiment": "Half life in CD1 mouse at 10 mg/kg, po", "format": "ADME, organism-based", "conditions": "in vivo"}, "[7]": {"experiment": "Volume of distribution at steady state in CD1 mouse at 3 mg/kg, iv", "format": "ADME, organism-based", "conditions": "in vivo, read-out: Vdss"}, "[8]": {"target": "Cytochrome P450 2C9 (Homo sapiens, UniProt P11712)", "sequence (P11712 whole entry)": "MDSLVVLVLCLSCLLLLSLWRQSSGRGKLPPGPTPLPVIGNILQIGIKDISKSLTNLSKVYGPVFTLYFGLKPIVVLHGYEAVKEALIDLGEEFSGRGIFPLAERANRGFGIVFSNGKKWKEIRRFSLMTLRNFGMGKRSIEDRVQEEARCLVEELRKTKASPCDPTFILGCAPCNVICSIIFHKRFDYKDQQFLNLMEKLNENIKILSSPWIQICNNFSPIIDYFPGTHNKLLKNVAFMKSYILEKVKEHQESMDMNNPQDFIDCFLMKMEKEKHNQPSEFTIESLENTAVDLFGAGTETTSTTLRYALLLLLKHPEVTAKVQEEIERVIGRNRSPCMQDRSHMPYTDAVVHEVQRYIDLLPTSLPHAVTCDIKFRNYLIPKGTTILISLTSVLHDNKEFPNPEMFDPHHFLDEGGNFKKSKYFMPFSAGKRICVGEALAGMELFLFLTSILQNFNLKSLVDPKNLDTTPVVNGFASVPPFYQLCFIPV", "experiment": "Inhibition of CYP2C9 (unknown origin)", "format": "ADME"}, "[9]": {"experiment": "Half life in Sprague-Dawley rat at 0.5 mg/kg, iv", "format": "ADME, organism-based", "conditions": "in vivo"}, "[10]": {"experiment": "Tmax in Sprague-Dawley rat at 3 mg/kg, po", "format": "ADME, organism-based", "conditions": "in vivo"}, "[11]": {"target": "Cytochrome P450 3A4 (Homo sapiens, UniProt P08684)", "sequence (P08684 whole entry)": "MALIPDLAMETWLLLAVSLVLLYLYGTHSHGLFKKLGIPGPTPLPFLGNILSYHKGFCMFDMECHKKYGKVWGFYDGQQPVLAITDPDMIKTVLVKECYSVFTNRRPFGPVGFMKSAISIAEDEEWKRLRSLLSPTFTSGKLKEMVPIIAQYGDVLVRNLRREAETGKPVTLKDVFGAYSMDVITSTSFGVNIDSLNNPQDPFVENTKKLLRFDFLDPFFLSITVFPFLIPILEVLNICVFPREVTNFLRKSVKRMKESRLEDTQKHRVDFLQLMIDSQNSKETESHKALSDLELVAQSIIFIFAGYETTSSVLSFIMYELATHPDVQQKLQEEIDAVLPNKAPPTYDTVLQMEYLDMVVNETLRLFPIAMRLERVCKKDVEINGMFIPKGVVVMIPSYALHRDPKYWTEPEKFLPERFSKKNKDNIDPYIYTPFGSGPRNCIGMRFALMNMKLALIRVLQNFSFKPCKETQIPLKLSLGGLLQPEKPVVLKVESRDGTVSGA", "experiment": "Inhibition of CYP3A4 (unknown origin)", "format": "ADME"}, "[12]": {"experiment": "Oral bioavailability in CD1 mouse at 10 mg/kg", "format": "ADME, organism-based", "conditions": "in vivo"}, "[13]": {"target": "T1, Cytochrome P450 1A2 (Homo sapiens, UniProt P05177)", "T1 sequence (P05177 whole entry)": "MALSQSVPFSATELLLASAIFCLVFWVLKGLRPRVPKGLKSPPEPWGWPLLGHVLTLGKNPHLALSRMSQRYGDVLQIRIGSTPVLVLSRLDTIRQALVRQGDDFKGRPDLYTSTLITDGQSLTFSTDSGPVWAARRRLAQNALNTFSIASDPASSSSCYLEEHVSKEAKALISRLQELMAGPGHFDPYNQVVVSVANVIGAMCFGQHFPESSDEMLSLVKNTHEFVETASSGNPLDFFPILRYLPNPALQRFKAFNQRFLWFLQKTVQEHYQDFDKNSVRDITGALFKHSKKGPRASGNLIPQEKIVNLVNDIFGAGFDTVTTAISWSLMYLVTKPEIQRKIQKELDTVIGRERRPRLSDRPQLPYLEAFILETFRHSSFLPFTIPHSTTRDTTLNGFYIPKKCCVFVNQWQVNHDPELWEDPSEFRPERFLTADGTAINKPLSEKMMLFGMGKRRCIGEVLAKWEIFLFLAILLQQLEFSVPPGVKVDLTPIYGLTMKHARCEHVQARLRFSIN", "experiment": "Inhibition of CYP1A2 (unknown origin)", "format": "ADME"}, "[14]": {"experiment": "Plasma clearance in Sprague-Dawley rat at 0.5 mg/kg, iv", "format": "ADME, organism-based", "conditions": "in vivo"}, "[15]": {"experiment": "Plasma clearance in CD1 mouse at 3 mg/kg, iv", "format": "ADME, organism-based", "conditions": "in vivo"}, "[16]": {"experiment": "Cmax in Sprague-Dawley rat at 3 mg/kg, po", "format": "ADME, organism-based", "parameters": "dose 3 mg/kg, route po", "conditions": "in vivo"}, "[17]": {"experiment": "Volume of distribution at steady state in Sprague-Dawley rat at 0.5 mg/kg, iv", "format": "ADME, organism-based", "conditions": "in vivo, read-out: Vdss"}, "[18]": {"experiment": "Half life in Sprague-Dawley rat at 3 mg/kg, po", "format": "ADME, organism-based", "conditions": "in vivo"}, "[19]": {"experiment": "Cmax in CD1 mouse at 10 mg/kg, po", "format": "ADME, organism-based", "parameters": "dose 10 mg/kg, route po", "conditions": "in vivo"}, "[20]": {"experiment": "AUC (0 to infinity) in Sprague-Dawley rat at 3 mg/kg, po", "format": "ADME, organism-based", "parameters": "dose 3 mg/kg, route po", "conditions": "in vivo"}, "[21]": {"experiment": "Solubility of compound at pH 7.4", "format": "physicochemical", "conditions": "buffer"}, "[22]": {"target": "Cytochrome P450 2D6 (Homo sapiens, UniProt P10635)", "sequence (P10635 whole entry)": "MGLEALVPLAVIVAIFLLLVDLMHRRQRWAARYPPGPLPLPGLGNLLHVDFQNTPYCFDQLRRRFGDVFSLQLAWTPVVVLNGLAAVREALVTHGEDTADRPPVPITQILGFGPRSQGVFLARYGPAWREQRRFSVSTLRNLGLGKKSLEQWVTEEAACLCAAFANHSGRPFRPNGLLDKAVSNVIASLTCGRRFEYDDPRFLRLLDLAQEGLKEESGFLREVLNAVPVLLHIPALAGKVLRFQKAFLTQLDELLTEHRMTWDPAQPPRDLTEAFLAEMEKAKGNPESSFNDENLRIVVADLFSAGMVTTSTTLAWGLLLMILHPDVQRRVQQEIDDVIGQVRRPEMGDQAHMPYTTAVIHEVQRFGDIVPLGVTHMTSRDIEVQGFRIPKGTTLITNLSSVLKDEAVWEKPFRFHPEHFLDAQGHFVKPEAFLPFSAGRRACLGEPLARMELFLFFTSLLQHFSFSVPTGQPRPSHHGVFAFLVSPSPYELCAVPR", "experiment": "Inhibition of CYP2D6 (unknown origin)", "format": "ADME"}, "[23]": {"experiment": "AUC in Sprague-Dawley rat at 0.5 mg/kg, iv", "format": "ADME, organism-based", "parameters": "dose 0.5 mg/kg, route iv", "conditions": "in vivo"}, "[24]": {"experiment": "Oral bioavailability in Sprague-Dawley rat at 3 mg/kg", "format": "ADME, organism-based", "conditions": "in vivo"}, "[25]": {"experiment": "Tmax in CD1 mouse at 10 mg/kg, po", "format": "ADME, organism-based", "conditions": "in vivo"}, "[26]": {"target": "T2, Glucocorticoid receptor (Homo sapiens, UniProt P04150)", "T2 sequence (P04150 whole entry)": "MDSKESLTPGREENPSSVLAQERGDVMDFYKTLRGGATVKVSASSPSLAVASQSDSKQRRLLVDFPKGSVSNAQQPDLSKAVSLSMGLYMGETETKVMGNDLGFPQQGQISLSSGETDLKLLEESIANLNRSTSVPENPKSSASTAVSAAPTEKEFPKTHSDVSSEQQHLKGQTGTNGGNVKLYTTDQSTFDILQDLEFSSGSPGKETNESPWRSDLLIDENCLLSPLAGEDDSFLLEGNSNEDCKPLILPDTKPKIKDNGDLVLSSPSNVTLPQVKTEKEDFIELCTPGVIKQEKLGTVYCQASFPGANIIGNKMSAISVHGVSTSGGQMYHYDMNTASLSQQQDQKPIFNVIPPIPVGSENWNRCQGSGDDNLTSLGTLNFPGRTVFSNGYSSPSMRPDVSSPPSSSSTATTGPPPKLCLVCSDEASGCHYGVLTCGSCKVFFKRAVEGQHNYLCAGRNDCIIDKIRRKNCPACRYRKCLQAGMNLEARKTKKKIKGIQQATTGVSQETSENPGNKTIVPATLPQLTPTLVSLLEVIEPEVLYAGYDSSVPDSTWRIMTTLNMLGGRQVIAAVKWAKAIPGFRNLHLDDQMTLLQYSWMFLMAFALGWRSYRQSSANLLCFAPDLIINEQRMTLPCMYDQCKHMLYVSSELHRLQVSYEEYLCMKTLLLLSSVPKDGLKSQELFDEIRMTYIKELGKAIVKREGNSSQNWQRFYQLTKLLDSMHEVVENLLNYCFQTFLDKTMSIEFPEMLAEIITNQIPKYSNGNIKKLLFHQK", "experiment": "Inhibition of glucocorticoid receptor (unknown origin)"}, "[27]": {"experiment": "Permeability of the compound by PAMPA assay", "format": "ADME", "conditions": "read-out: permeability"}},
  "data": [
    {"smiles": "C[C@]12C=CC(=O)C=C1CC[C@@H]1[C@@H]2[C@@H](O)C[C@@]2(C)[C@H]1C[C@H]1O[C@@H](c3ccc(Cc4cccc(N)c4)cc3)O[C@]12C(=O)CO", "values": [
      {"measurement": "Papp", "setting": "[1]", "result": 0.2, "unit": "×10⁻⁶ cm/s"},
      {"measurement": "Fu", "setting": "[2]", "result": 0.01, "unit": "%"},
      {"measurement": "AUC", "setting": "[3]", "result": 3580, "unit": "ng·h/mL"},
      {"measurement": "half-life", "setting": "[4]", "result": 3.82, "unit": "h"},
      {"measurement": "AUC", "setting": "[5]", "result": 0.21, "unit": "µg/h/mL"},
      {"measurement": "half-life", "setting": "[6]", "result": 3.56, "unit": "h"},
      {"measurement": "Vd", "setting": "[7]", "result": 2.91, "unit": "L/kg"},
      {"measurement": "IC50", "setting": "[8]", "result": 18.4, "unit": "µM"},
      {"measurement": "half-life", "setting": "[9]", "result": 1.2, "unit": "h"},
      {"measurement": "Tmax", "setting": "[10]", "result": 0.25, "unit": "h"},
      {"measurement": "IC50", "setting": "[11]", "result": "< 0.02", "unit": "µM"},
      {"measurement": "bioavailability", "setting": "[12]", "result": 1, "unit": "%"},
      {"measurement": "IC50", "setting": "[13]", "result": "> 40", "unit": "µM"},
      {"measurement": "clearance", "setting": "[14]", "result": 37.8, "unit": "mL/min/kg"},
      {"measurement": "clearance", "setting": "[15]", "result": 14.2, "unit": "mL/min/kg"},
      {"measurement": "Cmax", "setting": "[16]", "result": 80, "unit": "ng/mL"},
      {"measurement": "Vd", "setting": "[17]", "result": 2.55, "unit": "L/kg"},
      {"measurement": "half-life", "setting": "[18]", "result": 2.86, "unit": "h"},
      {"measurement": "Cmax", "setting": "[19]", "result": 40, "unit": "ng/mL"},
      {"measurement": "AUC(0-inf)", "setting": "[20]", "result": 220, "unit": "ng·h/mL"},
      {"measurement": "solubility", "setting": "[21]", "result": 1.33, "unit": "µM"},
      {"measurement": "IC50", "setting": "[22]", "result": "> 40", "unit": "µM"},
      {"measurement": "AUC", "setting": "[23]", "result": 220, "unit": "ng·h/mL"},
      {"measurement": "bioavailability", "setting": "[24]", "result": 16.8, "unit": "%"},
      {"measurement": "Tmax", "setting": "[25]", "result": 1.42, "unit": "h"}
    ]},
    {"smiles": "C[C@]12C=CC(=O)C=C1CC[C@@H]1[C@@H]2[C@@H](O)C[C@@]2(C)[C@H]1C[C@H]1O[C@@H](C3CCCCC3)O[C@]12C(=O)CO", "note": "[DESISOBUTYRYLCICLESONIDE]", "values": [
      {"measurement": "IC50", "setting": "[26]", "result": 0.002, "unit": "µM"}
    ]},
    {"smiles": "C[C@]12C=CC(=O)C=C1[C@@H](F)C[C@H]1[C@@H]3C[C@H]4O[C@@H](c5ccc(CN6CCNCC6)cc5)O[C@@]4(C(=O)CO)[C@@]3(C)C[C@H](O)[C@@]12F", "values": [
      {"measurement": "Papp", "setting": "[27]", "result": 0.22, "unit": "×10⁻⁶ cm/s"}
    ]},
    {"smiles": "C[C@]12C=CC(=O)C=C1CC[C@@H]1[C@@H]2[C@@H](O)C[C@@]2(C)[C@H]1C[C@H]1O[C@@H](c3ccc(CN4CCNCC4)cc3)O[C@]12C(=O)CO", "values": [
      {"measurement": "Papp", "setting": "[27]", "result": 0.23, "unit": "×10⁻⁶ cm/s"}
    ]}
  ]
}
